Experimental data published in US8846951B2 (AbbVie Inc., priority 2009, dated 2014).
Entries after “also recorded” stand apart in the source; their conditions may differ.

Legend:
[1] = system: AMP- or PCP-induced hyperactivity; experiment: Psychostimulant (AMP or PCP)-induced hyperlocomotion in mice; format: in vivo, mouse
Description: (x) Assessment of Effects on Psychostimulant-Induced Hyperlocomotion in Mice
In both humans and experimental animals amphetamine (AMP) profoundly affects motor activity, sensorimotor function, sleep, attention, aggressive and sexual behaviors, learning and memory, operant behaviors, appetite and food intake. In addition, amphetamine induces psychotic reactions in normal individuals and exacerbates symptoms of schizophrenia in patients. In experimental animals several distinct behaviors are considered to be correlates of amphetamine psychosis. For example, amphetamine-induced hyperactivity in rodents is believed to model the psychotic symptoms of schizophrenia. Reversal of these behaviors is used to predict potential antipsychotic activity of drugs in pre-clinical studies.
In humans, phencyclidine (PCP) is known to produce a syndrome of behavioral effects which have many characteristics in common with schizophrenia. Therefore, antagonism of PCP effects might be evidence for antipsychotic efficacy of a compound.
Male NMRI mice (5-week old, Janvier, France) or C57BL/6J mice (6-week old, Janvier, France) were group housed and allowed ad-libitum access to food and water. A 12 hour light/dark cycle was imposed with lights-on period between 0530 and 1730 hours. All testing occurred between 700 and 1300 hours. All procedures were approved by Abbott Institutional Animal Care and Use Committee (USA) or Animal Welfare Officer (Germany) and were conducted in accordance with the National Institutes of Health Guide for Care and Use of Laboratory Animals guidelines and applicable national laws in the facilities accredited by the Association for the Assessment and Accreditation of Laboratory Animal Care.
On the day of experiment, animals were brought from the animal facility into the experimental room and were allowed to acclimatize for at least 30 minutes. Animals were then placed in the test cages for a habituation period of 60 minutes. The animals were then injected ip with the test compound and returned to the test cage. 30 Minutes later the mice were injected with d-amphetamine (2.0 mg/kg, AMP, Sigma, #A5880, sc) or phencyclidine (2.0 mg/kg, PCP, Sigma, #P3029, sc) Sigma, and returned to the test cages for 90 minutes. Each treatment group consisted of 8-10 animals. The data was acquired by Cage rack Photobeam system (SDI, San Diego Instruments, CA). The analyzed data were: fine movements, ambulations and total movements (fine+ambulations). Data was subjected to one- or two-way distribution-free ANOVA followed by Dunnett's and Tukey's post hoc tests.

[2] = system: conditioned avoidance response (CAR) behavior; experiment: Conditioned avoidance responding in rats; format: in vivo, rat; settings: male Wistar rats
Experimental: The fact that antipsychotics have the unique ability to selectively suppress CAR behavior, made the CAR test a useful tool for the screening of new, potentially antipsychotic compounds. […] Animals Male Wistar rats (9-11 weeks old, Charles River, Germany) were pair-housed and allowed ad-libitum access to food and water. A 12-hour light/dark cycle was imposed with lights-on period between 0530 and 1730 hours. All testing occurred between 700 and 1300 hours. All procedures were approved by Abbott Institutional Animal Care and Use Committee (USA) or Animal Welfare Officer (Germany) and were conducted in accordance with the National Institutes of Health Guide for Care and Use of Laboratory Animals guidelines and applicable national laws in the facilities accredited by the Association for the Assessment and Accreditation of Laboratory Animal Care. Methods Wistar rats are exposed to a conditioned stimulus CS (a 2.9-kHz tone of 10 second duration), which is a signal for the animal that it must move into the other chamber in order to avoid an immediately ensuing footshock US (0.5 mA, 10 second, tone continues during shock presentation). Once the shock has begun, the animal can still escape it by moving to the other chamber. Each session is limited to a maximum of 40 trials (intertrial interval 10-90 seconds). The animals generally learn quickly to change chambers upon the conditioned stimulus and thus avoid further shocks. Scored are: • Avoided responses=crossings into other compartment within 10 seconds of tone presentation; • Escaped responses=crossings between 10-20 seconds of tone presentation; • Failures=crossings after cessation of tone-shock presentation or no crossing. […] At the test sessions (=CS-shock pairings), animals are pre-treated with a test drug or vehicle 30 minutes before commencement of the session.

spontaneous activity ([1]; after ip test compound, before psychostimulant): without affecting spontaneous activity
SMILES: CN1C[C@@H]2CNC(=O)c3cc(-c4ccc(F)cc4)ccc3[C@H]2C1 [Example 115, (3aS,10bS)-8-(4-Fluorophenyl)-2-methyl-1,2,3,3a,4,5-hexahydrobenzo[e]pyrrolo[3,4-c]azepin-6(10bH)-one]
AMP-induced hyperactivity ([1]; test compound ip 30 min before d-amphetamine 2.0 mg/kg sc): attenuated AMP-induced hyperactivity in mice significantly and in a dose dependent manner; also recorded: attenuating the affect of d-amphetamine (AMP)
conditioned avoidance behavior (avoided responses) ([2]; acute, 30 minutes before session): significantly suppressed conditioned avoidance behavior
number of failures ([2]; indicator of sedation or extrapyramidal side effects): without affecting the number of failures
